From US20090036531A1, “Method for treatment of onychomycosis” (priority 2005, published 2009)
Where two headings read alike, the source gives them in different places.

Columns and labels:
Onychomycosis fungi = experiment: Addition of undecylenic acid or hydroquinone to cyanoacrylate ester on infected nails; type: in vivo; conditions: for effect on yellow color of infected nails: added to cyanoacrylate ester
onychomycosis = conditions: continuous therapy (ingestion); cited from earlier work
[1] = cited from earlier work

Compound: Oc1ccc(O)cc1 [hydroquine]
- effect on yellow color of infected nails (Onychomycosis fungi): remove the yellow-color of infected nails

Compound: CN(C/C=C/C#CC(C)(C)C)Cc1cccc2ccccc12 [Lamisil, terbinafine]
- Cure of all nails (share of subjects) (onychomycosis): 25%
- complete cure (onychomycosis): 41%
- mycological cure (onychomycosis): 71%

Compound: 2-ETHYL CYANO ACRYLATE
- Soluble In ([1]; Cured State): Pacer X-8 Debonder, Acetone,
- Soluble In ([1]; Liquid State): Acetone, MEK, Nitromethane

Compound: C=CCCCCCCCCC(=O)O [undecylenic acid]
- effect on yellow color of infected nails (Onychomycosis fungi): remove the yellow-color of infected nails
- effect on spread of infection (Onychomycosis fungi; addition of 1-12%, preferably 2-10%): inhibit the spread of infection
